Patent US10144732B2 (BIOGEN MA INC., priority 2014, dated 2018)
“And” between values parts separate entries of the source, which are not always exact repeats. Equal values may be shown once. Where a name gives a salt, the structure may show the parent alone.

Biological target: T1, Human ATX protein (Homo sapiens, UniProt Q13822)
T1 construct: made in house
Assay: ATX biochemical assay (FRET, FS-3 substrate)
Conditions: FRET assay, FS-3 2 μM, ATX 1.0 μg/mL, 30 minutes preincubation, 2 hours reaction at room temperature; read-out: IC50
Excerpt: ATX (Autotaxin) is a 125 KDa glycoprotein with lysophospholipase D (LPLD) activity that generates the bioactive lipid lysophosphatidic acid (LPA) from lysophosphatidylcholine (LPC). The ATX biochemical assay utilizes a FRET (fluorescence resonance energy transfer) technology platform. The fluorescence signal of FRET substrate FS-3 is quenched due to intra-molecular FRET of a fluorophore to a non-fluorescing quencher (Ferguson, C. G., et al., Org Lett. 2006 May 11; 8(10): 2023-2026, which is incorporated by reference in its entirety). ATX catalyzes the hydrolysis of the substrate which separates the dabsyl quencher from the fluorescein reporter, which becomes fluorescent. The reaction is monitored by a SpectraMax M5 (Molecular Devices, Sunnyvale, Calif.) with at excitation wavelength 485 nm and emission wavelength […].
Fatty acid free-BSA (Sigma A8806): 10 mg/mL in H2O, stored at 4° C.
2×ATX assay buffer: 100 mM Tris, 280 mM NaCl, 10 mM KCl, 2 mM CaCl2, 2 mM MgCl2, pH 7.4.
Human ATX protein: expressed and purified in house. Stored at −80° C.
Substrate FS-3 (Echelon, L-2000): 100 μg in 77.74 μL H2O (1 mM stock), stored at −20° C.
384-well flat bottom plates—Corning #3575.
Compound dilution—All compounds were provided at 10 mM in 100% DMSO. In the first well, 2 μL of 10 mM compound was added to 78 μL of DMSO (1:40 dilution). In subsequent wells 3-fold dilution (total 10 dilutions) were performed.
1×ATX assay buffer was made up with a final concentration of 1 mg/mL fatty acid free-BSA using 2×ATX assay buffer, 10 mg/ml fatty acid free-BSA and ddH2O.
[…]. The final concentration of ATX in the reaction as 1.0 μg/mL.
2 μL per well of compounds was transferred to provide the desired concentration. The plate was centrifuged, then incubated at room temperature for 30 minutes on the shaker.
FS-3 was diluted with 1×ATX assay buffer to a concentration of FS-3 of 10 μM (5×). Then, 10 μL was added per well to the assay plate. The final concentration of FS-3 in the reaction was 2 μM. The plate was centrifuged. The plate was kept shaking at room temperature for 2 hours. Because FS-3 substrate is light sensitive, plates were kept covered and protected from light.
Fluorescence was measured using SpectraMax M5 (excitation at 485 nm/emission at 538 nm, top read).

Row | IC50 | Compound
1 | ≤ 0.1 µM | CCOC(=O)[C@H]1CC[C@H](CC(=O)N2CCc3c(-c4ccccc4)nn(Cc4ccc(F)cc4)c3C2)CC1 [Example 1-44, trans-Ethyl 4-(2-(1-(4-fluorobenzyl)-3-phenyl-4,5-dihydro-1H-pyrazolo[3,4-c]pyridin-6(7H)-yl)-2-oxoethyl)cyclohexanecarboxylate]
2 | ≤ 0.1 µM | CCOC(=O)[C@H]1CC[C@H](CC(=O)N2CCc3c(C(F)(F)F)nn(Cc4ccsc4)c3C2)CC1 [Example 1-45, trans-Ethyl-4-(2-oxo-2-(1-(thiophen-3-ylmethyl)-3-(trifluoromethyl)-4,5-dihydro-1H-pyrazolo[3,4-c]pyridin-6(7H)-yl)ethyl)cyclohexanecarboxylate]
3 | ≤ 0.1 µM | CCOC(=O)[C@H]1CC[C@H](CC(=O)N2CCc3c(C(F)(F)F)nn(Cc4cccs4)c3C2)CC1 [Example 1-46, trans-Ethyl-4-(2-oxo-2-(1-(thiophen-2-ylmethyl)-3-(trifluoromethyl)-4,5-dihydro-1H-pyrazolo[3,4-c]pyridin-6(7H)-yl)ethyl)cyclohexanecarboxylate]
4 | ≤ 0.1 µM | CCOC(=O)[C@H]1CC[C@H](CC(=O)N2CCc3c(C(F)(F)F)nn(Cc4cncs4)c3C2)CC1 [Example 1-47, trans-Ethyl 4-(2-oxo-2-(1-(thiazol-5-ylmethyl)-3-(trifluoromethyl)-4,5-dihydro-1H-pyrazolo[3,4-c]pyridin-6(7H)-yl)ethyl)cyclohexanecarboxylate]
5 | ≤ 0.1 µM | CCOC(=O)[C@H]1CC[C@H](CC(=O)N2CCc3c(C(F)(F)F)nn(CC4CCC(C)CC4)c3C2)CC1 (stereo partly drawn) [Example 1-48, trans-Ethyl 4-(2-(1-((4-methylcyclohexyl)methyl)-3-(trifluoromethyl)-4,5-dihydro-1H-pyrazolo[3,4-c]pyridin-6(7H)-yl)-2-oxoethyl) cyclohexanecarboxylate]
6 | ≤ 0.1 µM | CCOC(=O)[C@H]1CC[C@H](CC(=O)N2CCc3c(C(F)(F)F)nn(Cc4ccc(F)cc4F)c3C2)CC1 [Example 1-50, trans-Ethyl 4-(2-(1-(2,4-difluorobenzyl)-3-(trifluoromethyl)-4,5-dihydro-1H-pyrazolo[3,4-c]pyridin-6(7H)-yl)-2-oxoethyl)cyclohexanecarboxylate]
7 | ≤ 0.1 µM | CCOC(=O)[C@H]1CC[C@H](CC(=O)N2CCc3c(C(F)(F)F)nn(Cc4ccc(Cl)cc4F)c3C2)CC1 [Example 2-1, trans-Ethyl 4-(2-(1-(4-chloro-2-fluorobenzyl)-3-(trifluoromethyl)-4,5-dihydro-1H-pyrazolo[3,4-c]pyridin-6(7H)-yl)-2-oxoethyl)cyclohexanecarboxylate]
8 | ≤ 0.1 µM | CCOC(=O)[C@H]1CC[C@@H](CC(=O)N2CCc3c(C(F)(F)F)nn(Cc4ccc(Cl)cc4F)c3C2)CC1 [Example 2-2, cis-Ethyl 4-(2-(1-(4-chloro-2-fluorobenzyl)-3-(trifluoromethyl)-4,5-dihydro-1H-pyrazolo[3,4-c]pyridin-6(7H)-yl)-2-oxoethyl)cyclohexanecarboxylate]
9 | ≤ 0.1 µM | CCOC(=O)[C@H]1CC[C@H](CC(=O)N2CCc3c(C(F)(F)F)nn(Cc4cc(F)cc(Cl)c4)c3C2)CC1 [Example 2-3, trans-Ethyl 4-(2-(1-(3-chloro-5-fluorobenzyl)-3-(trifluoromethyl)-4,5-dihydro-1H-pyrazolo[3,4-c]pyridin-6(7H)-yl)-2-oxoethyl)cyclohexanecarboxylate]

Second part, the molecule before the results:

Row | Compound | IC50
10 | O=C(CCc1nnn[nH]1)N1CCc2c(C(F)(F)F)nn(Cc3ccc(F)cc3)c2C1 [Example 1-32, 1-(1-(4-Fluorobenzyl)-3-(trifluoromethyl)-4,5-dihydro-1H-pyrazolo[3,4-c]pyridin-6(7H)-yl)-3-(1H-tetrazol-5-yl)propan-1-one] | ≤ 0.1 µM
11 | O=C(CC1CCN2CCCC2C1)N1CCc2c(C(F)(F)F)nn(Cc3ccc(Cl)cc3F)c2C1 (stereo not drawn) [Example 1-33, 1-(1-(4-Chloro-2-fluorobenzyl)-3-(trifluoromethyl)-4,5-dihydro-1H-pyrazolo[3,4-c]pyridin-6(7H)-yl)-2-(octahydroindolizin-7-yl)ethanone TFA salt] | ≤ 0.1 µM
12 | O=C(CC1CCN2CCCC2C1)N1CCc2c(C(F)(F)F)nn(Cc3ccc(F)cc3)c2C1 (stereo not drawn) [Example 1-34, 1-(1-(4-Fluorobenzyl)-3-(trifluoromethyl)-4,5-dihydro-1H-pyrazolo[3,4-c]pyridin-6(7H)-yl)-2-(octahydroindolizin-7-yl)ethanone TFA salt] | ≤ 0.1 µM
13 | O=C(C1CN2CCC1CC2)N1CCc2c(C(F)(F)F)nn(Cc3ccc(F)cc3)c2C1 (stereo not drawn) [Example 1-35, (1-(4-Fluorobenzyl)-3-(trifluoromethyl)-4,5-dihydro-1H-pyrazolo[3,4-c]pyridin-6(7H)-yl)(quinuclidin-3-yl)methanone TFA salt] | 0.1 to 0.25 µM
14 | O=C(N1CCc2c(C(F)(F)F)nn(Cc3ccc(F)cc3)c2C1)C12CCN(CC1)CC2 [Example 1-36, (1-(4-Fluorobenzyl)-3-(trifluoromethyl)-4,5-dihydro-1H-pyrazolo[3,4-c]pyridin-6(7H)-yl)(quinuclidin-4-yl)methanone TFA salt] | 0.25 to 0.5 µM
15 | CCOC(=O)[C@H]1CC[C@H](CC(=O)N2CCc3c(C(F)F)nn(Cc4ccc(F)cc4)c3C2)CC1 [Example 1-38, trans-Ethyl 4-(2-(3-(difluoromethyl)-1-(4-fluorobenzyl)-4,5-dihydro-1H-pyrazolo[3,4-c]pyridin-6(7H)-yl)-2-oxoethyl)cyclohexanecarboxylate] | ≤ 0.1 µM
16 | CCOC(=O)[C@H]1CC[C@H](CC(=O)N2CCc3c(C4CC4)nn(Cc4ccc(F)cc4)c3C2)CC1 [Example 1-39, trans-Ethyl 4-(2-(3-cyclopropyl-1-(4-fluorobenzyl)-4,5-dihydro-1H-pyrazolo[3,4-c]pyridin-6(7H)-yl)-2-oxoethyl)cyclohexanecarboxylate] | ≤ 0.1 µM
17 | CCOC(=O)c1nn(Cc2ccc(F)cc2)c2c1CCN(C(=O)C[C@H]1CC[C@H](C(=O)OCC)CC1)C2 [Example 1-40, Ethyl 6-(2-(trans-4-(ethoxycarbonyl)cyclohexyl)acetyl)-1-(4-fluorobenzyl)-4,5,6,7-tetrahydro-1H-pyrazolo[3,4-c]pyridine-3-carboxylate] | > 0.5 µM and ≤ 10 µM
18 | CCOC(=O)[C@H]1CC[C@H](CC(=O)N2CCc3c(CO)nn(Cc4ccc(F)cc4)c3C2)CC1 [Example 1-41, trans-Ethyl-4-(2-(1-(4-fluorobenzyl)-3-(hydroxymethyl)-4,5-dihydro-1H-pyrazolo[3,4-c]pyridin-6(7H)-yl)-2-oxoethyl)cyclohexanecarboxylate] | 0.25 to 0.5 µM
19 | CCOC(=O)[C@H]1CC[C@H](CC(=O)N2CCc3c(C(N)=O)nn(Cc4ccc(F)cc4)c3C2)CC1 [Example 1-42, trans-Ethyl 4-(2-(3-carbamoyl-1-(4-fluorobenzyl)-4,5-dihydro-1H-pyrazolo[3,4-c]pyridin-6(7H)-yl)-2-oxoethyl)cyclohexanecarboxylate] | > 0.5 µM and ≤ 10 µM
20 | CCOC(=O)[C@H]1CC[C@H](CC(=O)N2CCc3c(C#N)nn(Cc4ccc(F)cc4)c3C2)CC1 [Example 1-43, trans-Ethyl 4-(2-(3-cyano-1-(4-fluorobenzyl)-4,5-dihydro-1H-pyrazolo[3,4-c]pyridin-6(7H)-yl)-2-oxoethyl)cyclohexanecarboxylate] | ≤ 0.1 µM

Same assay, conditions: IC50, FRET assay, FS-3 2 μM, ATX 1.0 μg/mL, 30 minutes preincubation, 2 hours reaction at room temperature

Row | Compound | IC50 [µM]
21 | O=C(CC1CN2CCC1CC2)N1CCc2c(C(F)(F)F)nn(Cc3ccc(F)cc3)c2C1 (stereo not drawn) [Example 1-37, 1-(1-(4-Fluorobenzyl)-3-(trifluoromethyl)-4,5-dihydro-1H-pyrazolo[3,4-c]pyridin-6(7H)-yl)-2-(quinuclidin-3-yl)ethanone TFA salt] | ≤ 0.1
